Experimental data as given in article PMC10515640, “Structure-Based Optimization of Covalent, Small-Molecule Stabilizers of the 14-3-3σ/ERα Protein–Protein Interaction from Nonselective Fragments” (Journal of the American Chemical Society, 2023).

What was measured:
14-3-3σ = biological target: T1, 14-3-3σ (Homo sapiens, UniProt P31947); assay: Mass spectrometry dose response, compound binding to 14-3-3σ in the absence of peptide (apo); details: 100 nM compound, 100 nM 14-3-3σ
T1 construct: The 14-3-3 σ isoform (full-length for mass spectrometry and fluorescence anisotropy assays, ΔC for crystallography); made in house; host or cells: E. coli Rosetta 2(DE3)pLysS, pPROEX HTb vector
T1 sequence (P31947 1-248): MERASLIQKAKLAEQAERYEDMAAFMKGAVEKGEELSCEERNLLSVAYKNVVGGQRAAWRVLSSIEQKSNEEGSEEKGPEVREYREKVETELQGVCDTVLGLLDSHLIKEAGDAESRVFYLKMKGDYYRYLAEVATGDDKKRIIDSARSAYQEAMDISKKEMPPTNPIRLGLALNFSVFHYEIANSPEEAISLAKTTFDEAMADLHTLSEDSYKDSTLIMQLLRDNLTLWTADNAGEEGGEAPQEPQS
Excerpt: (§1) Two orthogonal assays were developed for screening. For the primary assay, mass spectrometry (MS) was used to monitor the formation of the covalent bond between the compound and the native cysteine (Cys38 on 14-3-3σ) (Figure 1D). The assay was first performed in the absence of peptide to determine binding to 14-3-3σ only (apo screening, D1) and then in the presence of both 14-3-3σ and the peptide as an indication of how much the peptide stabilized compound binding (D2). […] As a secondary assay, fluorescence anisotropy (FA) was used. In this case, compounds were titrated to mixtures of 14-3-3σ and FAM-labeled peptides. […] Thus, the two assays are highly complementary; the MS assay reports on compound binding and the FA assay reports on peptide binding. […]
(§2) Mass spectrometry dose response assays were performed on a Waters Acquity UPLC/ Xevo G2-XS Q-Tof mass spectrometer. A Waters UPLC Protein BEH-C4 Column (300 Å, 1.7 μm, 2.1 mm x 50 mm) was used to desalt the samples prior to application on the mass spectrometer. For 19-point MS dose responses, 50 mM compound stocks in DMSO were serially diluted in 3-fold increment in a master plate, then 1000 nl of the compounds were transferred in the assay plates. Master mixes containing 100 nM full-length wild type 14-3-3σ in the absence or presence of […]
(§3) Assay buffer was TRIS (10 mM, pH 8.0) and final volume per well was 50 μl, with final top concentration of compounds dose response series at 1 mM. The reaction mixtures were incubated for 1h at rt before subjected to MS. Four measurements (1h, 8h, 16h, 24h) were performed for time-course experiments. The injection volume for each sample was 6 μl. 24 μl of sample were needed for the time-course experiments, so the total volume in the assay plate was adjusted to 50 μl, to account for the dead volume in the injections. Data collection and automated processing followed a custom workflow, as previously described.1 z Plots were created using GraphPad Prism with the log(agonist) vs. response (variable slope, four parameters) fitting model. […]

14-3-3σ/ERα [1] = biological target: T2, 14-3-3σ/ERα (Homo sapiens, UniProt P03372+P31947); assay: Mass spectrometry dose response, compound binding to 14-3-3σ in the presence of ERα phosphopeptide; details: 100 nM compound, 100 nM 14-3-3σ, ERα-peptide 2 µM
T2 construct: The 14-3-3 σ isoform (full-length for mass spectrometry and fluorescence anisotropy assays, ΔC for crystallography); made in house; host or cells: E. coli Rosetta 2(DE3)pLysS, pPROEX HTb vector
Excerpt: as §1, §2, §3

14-3-3σ/C-RAF [2] = biological target: T3, 14-3-3σ/C-RAF (Homo sapiens, UniProt P31947); assay: Mass spectrometry dose response, compound binding to 14-3-3σ in the presence of C-RAF phosphopeptide; details: 100 nM compound, 100 nM 14-3-3σ, C-RAF peptide 18 µM
T3 construct: The 14-3-3 σ isoform (full-length for mass spectrometry and fluorescence anisotropy assays, ΔC for crystallography); made in house; host or cells: E. coli Rosetta 2(DE3)pLysS, pPROEX HTb vector
T3 sequence (P31947 1-248): T1 sequence (P31947 1-248)
Excerpt: as §1, §2, §3

14-3-3σ/ERα [3] = biological target: T2, 14-3-3σ/ERα; assay: Fluorescence anisotropy compound titration, FAM-labeled ERα peptide; format: binding; details: 10 nM ERα-FAM labeled peptide, 1 µM 14-3-3σ, overnight incubation (24 h); read-out: EC50 value ERα (FA compound titration)
Excerpt: as §1
(§4) diluted in buffer (10 mM HEPES, pH 7.5, 150 mM NaCl, 0.1% Tween20, 1 mg/mL Bovine Serum Albumin (BSA; Sigma-Aldrich). Final DMSO in the assay was always 1%. Dilution series of 14-3-3 proteins or compounds were made in […]
(§5) Compound titrations were made by titrating the compound in a 2-fold dilution series (starting at 500 or 1000 µM) to a mix of fluorescein-labeled peptide (10 nM) and 14-3-3σ (concentration at approximately the EC20 to EC30 value of the protein-peptide complex; 1 µM for ERα and 5 µM for C-RAF). Using the ~EC25 value makes the assay sensitive for measuring an increase in PPI formation. Fluorescence anisotropy measurements were performed directly and after overnight incubation at room temperature. […]
(§6) Wells containing only FAM-peptide were used to set as G-factor at 35 mP. Data reported are at endpoint. EC50 and apparent Kd values were obtained from fitting the data with a four-parameter logistic model (4PL) in GraphPad Prism 7 for Windows. Data was obtained and averaged based on either three (compound titrations) or two (protein titrations) independent experiments.

14-3-3σ/C-RAF [4] = biological target: T3, 14-3-3σ/C-RAF; assay: Fluorescence anisotropy compound titration, FAM-labeled C-RAF peptide; format: binding; details: 10 nM C-RAF-FAM labeled peptide, 5 µM 14-3-3σ, overnight incubation; read-out: EC50 value C-RAF (FA compound titration)
Excerpt: as §1, §4, §5, §6

Percentage (%) bound of compound to 14-3-3σ, APO 1h (14-3-3σ) [%]	Percentage (%) bound of compound to 14-3-3σ, APO 8h (14-3-3σ) [%]	Percentage (%) bound of compound to 14-3-3σ, APO 16h (14-3-3σ) [%]	Percentage (%) bound of compound to 14-3-3σ, APO 24h (14-3-3σ) [%]	Percentage (%) bound of compound to 14-3-3σ, ERα 1h (14-3-3σ/ERα [1]) [%]	Percentage (%) bound of compound to 14-3-3σ, ERα 8h (14-3-3σ/ERα [1]) [%]	Percentage (%) bound of compound to 14-3-3σ, ERα 16h (14-3-3σ/ERα [1]) [%]	Percentage (%) bound of compound to 14-3-3σ, ERα 24h (14-3-3σ/ERα [1]) [%]	Percentage (%) bound of compound to 14-3-3σ, CRAF 1h (14-3-3σ/C-RAF [2]) [%]	Percentage (%) bound of compound to 14-3-3σ, CRAF 8h (14-3-3σ/C-RAF [2]) [%]	Percentage (%) bound of compound to 14-3-3σ, CRAF 24h (14-3-3σ/C-RAF [2]; 24h) [%]	Percentage (%) bound of compound to 14-3-3σ, CRAF 24h (14-3-3σ/C-RAF [2]; head prints 24h) [%]	EC50 (14-3-3σ/ERα [3]) [µM]	EC50 (14-3-3σ/C-RAF [4]) [µM]	SMILES
0	0	0	0	0	0	0	1.8	0.0	1.0	4.3	2.6	> 150	> 150	CC(C)(Oc1ccc(Cl)cc1)C(=O)N1CCC(NC(=O)CCl)CC1 [compound 26]
0.0	1.0	1.4	2.0	1.4	6.4	14.6	30.6	4.1	10.6	28.3	19.2	19 ± 1	16 ± 4	CC(C)(Oc1ccc(Cl)cc1)C(=O)N1CCC(CNC(=O)CCl)CC1 [compound 27]
1.0	1.0	1.9	1.9	0.3	1.5	4.2	10.9	3.1	7.5	40.1	22.1	24 ± 16	40 ± 1	CC(C)(Oc1ccc(Cl)cc1)C(=O)N1CCC(CCNC(=O)CCl)CC1 [compound 28]
0	0	0	0	0	0	1.0	1.1	0	0	0	0	92 ± 8	–	O=C(CCl)NCCC1CCN(C(=O)C2(Nc3ccc(Cl)cc3)CCOCC2)CC1 [compound 148]
0	0	1.8	2.2	6.5	20.6	48.0	75.0	0	1.0	3.7	1.5	16 ± 2	–	O=C(CCl)NCCC1CCN(C(=O)C2(Nc3ccc(Cl)cc3)CCNCC2)CC1 [compound 151]
4.7	7.4	7.8	8.0	23.1	44.7	76.1	88.8	0	0	0	0	16 ± 1	–	O=C(CCl)NCCCC1CCN(C(=O)C2(Nc3ccc(Cl)cc3)CCNCC2)CC1 [compound 153]
18.0	35.7	70.7	95.1	81.1	97.0	100	100	54.7	62.3	99.4	92.0	5 ± 0.3	–	O=C(CCl)CCC1CCN(C(=O)C2(Nc3ccc(Cl)cc3)CCOCC2)CC1 [compound 156]
